Test results: patent US10526316B2, “Quinoxaline and pyridopyrazine derivatives as PI3Kβ inhibitors” (Janssen Pharmaceutica NV, priority 2015, dated 2020)

Experiments:
PI3Kβ = target: T1, PI3Kβ (Homo sapiens, UniProt P42338); assay: Enzyme binding assay (KINOMEscan, DiscoveRx); conditions: PIK3Cβ_h, read-out: Kd PIK3Cβ_h
T1 construct: purchased DiscoveRx Corporation, San Diego (contract service, KINOMEscan)
In short: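 KINOMEscan binding platform; read-out is the inhibitor binding constant Kd (nM).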

PI3Kδ = target: T2, PI3Kδ (Homo sapiens, UniProt O00329); assay: Enzyme binding assay (KINOMEscan, DiscoveRx); conditions: PIK3Cδ_h
T2 construct: purchased DiscoveRx Corporation, San Diego (contract service, KINOMEscan)
T2 sequence (O00329 1-1044): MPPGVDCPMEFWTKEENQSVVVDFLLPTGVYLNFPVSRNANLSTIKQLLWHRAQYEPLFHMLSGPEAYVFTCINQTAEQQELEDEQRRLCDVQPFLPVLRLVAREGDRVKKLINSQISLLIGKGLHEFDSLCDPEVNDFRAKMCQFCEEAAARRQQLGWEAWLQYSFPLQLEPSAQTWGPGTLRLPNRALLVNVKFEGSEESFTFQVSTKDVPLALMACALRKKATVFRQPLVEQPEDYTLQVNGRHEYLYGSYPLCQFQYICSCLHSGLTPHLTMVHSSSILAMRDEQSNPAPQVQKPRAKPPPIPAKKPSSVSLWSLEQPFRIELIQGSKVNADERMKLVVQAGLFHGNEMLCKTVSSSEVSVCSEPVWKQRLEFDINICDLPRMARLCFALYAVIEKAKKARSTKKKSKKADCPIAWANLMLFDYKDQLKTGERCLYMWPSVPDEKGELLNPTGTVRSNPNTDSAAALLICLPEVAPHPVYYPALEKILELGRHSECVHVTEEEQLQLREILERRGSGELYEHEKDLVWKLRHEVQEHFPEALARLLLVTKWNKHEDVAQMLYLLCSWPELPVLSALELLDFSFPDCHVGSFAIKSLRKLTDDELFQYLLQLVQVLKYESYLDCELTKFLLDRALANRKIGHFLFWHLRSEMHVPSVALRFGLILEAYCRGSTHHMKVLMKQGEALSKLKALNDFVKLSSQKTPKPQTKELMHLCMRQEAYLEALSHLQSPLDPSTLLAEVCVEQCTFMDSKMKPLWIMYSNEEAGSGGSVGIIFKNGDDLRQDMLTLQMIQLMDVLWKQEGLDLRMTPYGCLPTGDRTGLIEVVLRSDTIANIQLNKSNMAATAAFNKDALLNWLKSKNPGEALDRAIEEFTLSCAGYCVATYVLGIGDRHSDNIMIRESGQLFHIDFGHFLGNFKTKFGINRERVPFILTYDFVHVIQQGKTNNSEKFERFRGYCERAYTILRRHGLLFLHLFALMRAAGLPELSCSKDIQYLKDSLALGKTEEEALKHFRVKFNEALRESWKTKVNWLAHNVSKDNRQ
In short: (§1)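 KINOMEscan readout; values are kinase binding affinities.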

kinase enzymes [1] = target: T3, kinase enzymes (Homo sapiens, UniProt P42336); assay: Enzyme binding assay (KINOMEscan, DiscoveRx), further kinases of Table A; conditions: PIK3Cα_h
T3 construct: purchased DiscoveRx Corporation, San Diego (contract service, KINOMEscan)
T3 sequence (P42336 whole entry): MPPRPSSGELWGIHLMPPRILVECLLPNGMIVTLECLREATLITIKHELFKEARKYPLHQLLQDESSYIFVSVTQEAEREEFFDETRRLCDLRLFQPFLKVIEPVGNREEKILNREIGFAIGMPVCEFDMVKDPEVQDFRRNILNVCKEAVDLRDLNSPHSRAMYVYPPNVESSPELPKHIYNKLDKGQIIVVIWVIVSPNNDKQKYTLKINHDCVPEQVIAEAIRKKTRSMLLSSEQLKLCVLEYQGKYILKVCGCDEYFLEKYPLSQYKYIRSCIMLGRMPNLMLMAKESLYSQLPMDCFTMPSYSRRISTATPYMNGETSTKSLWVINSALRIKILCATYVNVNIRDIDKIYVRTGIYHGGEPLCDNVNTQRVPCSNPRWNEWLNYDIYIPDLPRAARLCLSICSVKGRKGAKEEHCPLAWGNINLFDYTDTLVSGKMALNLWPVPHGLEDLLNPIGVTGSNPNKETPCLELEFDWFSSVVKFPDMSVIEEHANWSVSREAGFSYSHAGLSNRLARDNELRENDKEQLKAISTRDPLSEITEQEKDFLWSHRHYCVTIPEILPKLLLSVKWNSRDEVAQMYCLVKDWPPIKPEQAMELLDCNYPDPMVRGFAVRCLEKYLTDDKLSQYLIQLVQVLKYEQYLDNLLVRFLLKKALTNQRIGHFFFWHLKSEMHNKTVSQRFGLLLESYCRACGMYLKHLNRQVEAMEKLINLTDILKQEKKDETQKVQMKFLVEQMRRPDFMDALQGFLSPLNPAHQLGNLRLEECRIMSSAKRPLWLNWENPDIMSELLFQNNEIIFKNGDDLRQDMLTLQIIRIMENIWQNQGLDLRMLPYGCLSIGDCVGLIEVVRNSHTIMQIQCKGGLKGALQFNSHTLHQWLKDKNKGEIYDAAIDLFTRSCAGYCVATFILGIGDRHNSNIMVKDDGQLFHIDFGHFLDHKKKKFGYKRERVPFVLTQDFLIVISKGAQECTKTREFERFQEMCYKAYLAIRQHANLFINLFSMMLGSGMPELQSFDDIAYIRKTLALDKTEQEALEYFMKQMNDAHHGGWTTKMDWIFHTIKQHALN
In short: as §1

kinase enzymes [2] = target: T4, kinase enzymes (Homo sapiens, UniProt P42345); assay: as above; conditions: MTOR_h
T4 construct: purchased DiscoveRx Corporation, San Diego (contract service, KINOMEscan)
In short: as §1

kinase enzymes [3] = target: T5, kinase enzymes (Homo sapiens, UniProt P48736); assay: as above; conditions: PIK3Cγ_h
T5 construct: purchased DiscoveRx Corporation, San Diego (contract service, KINOMEscan)
T5 sequence (P48736 whole entry): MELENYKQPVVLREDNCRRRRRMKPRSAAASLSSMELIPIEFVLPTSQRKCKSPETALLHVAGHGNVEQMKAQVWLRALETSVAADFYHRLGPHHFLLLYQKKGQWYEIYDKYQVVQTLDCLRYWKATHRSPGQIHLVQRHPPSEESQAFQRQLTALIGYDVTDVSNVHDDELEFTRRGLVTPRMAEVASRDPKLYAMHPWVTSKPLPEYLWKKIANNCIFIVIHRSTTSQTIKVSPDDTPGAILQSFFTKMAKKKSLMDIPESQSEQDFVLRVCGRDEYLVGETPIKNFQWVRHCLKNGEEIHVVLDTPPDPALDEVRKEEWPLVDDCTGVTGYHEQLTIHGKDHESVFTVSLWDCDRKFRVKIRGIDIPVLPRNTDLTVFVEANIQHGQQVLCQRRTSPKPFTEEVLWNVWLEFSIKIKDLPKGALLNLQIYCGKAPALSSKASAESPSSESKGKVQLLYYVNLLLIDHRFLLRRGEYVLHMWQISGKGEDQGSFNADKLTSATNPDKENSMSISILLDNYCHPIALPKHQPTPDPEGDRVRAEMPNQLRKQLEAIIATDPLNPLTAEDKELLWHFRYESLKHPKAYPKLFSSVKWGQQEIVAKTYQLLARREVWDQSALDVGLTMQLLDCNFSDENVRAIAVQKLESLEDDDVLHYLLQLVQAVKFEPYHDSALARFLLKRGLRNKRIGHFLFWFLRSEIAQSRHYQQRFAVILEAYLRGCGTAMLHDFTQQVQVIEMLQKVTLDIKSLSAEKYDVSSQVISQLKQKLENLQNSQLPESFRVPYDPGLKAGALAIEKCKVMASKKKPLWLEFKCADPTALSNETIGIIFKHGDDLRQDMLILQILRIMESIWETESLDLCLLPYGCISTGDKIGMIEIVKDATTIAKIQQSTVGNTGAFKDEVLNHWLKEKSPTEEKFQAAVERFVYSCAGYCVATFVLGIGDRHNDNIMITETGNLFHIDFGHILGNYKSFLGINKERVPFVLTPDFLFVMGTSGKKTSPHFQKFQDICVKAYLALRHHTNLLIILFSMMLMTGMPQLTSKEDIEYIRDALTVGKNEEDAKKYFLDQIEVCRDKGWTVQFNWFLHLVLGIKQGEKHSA
In short: as §1

[4] = system: Akt phosphorylated at Ser473 in PC-3 cells; assay: Cellular assay: phosphorylation of Akt at Ser473 in PC-3 cells (MSD ELISA); type: cell-based; conditions: Homo sapiens, PC-3, 1 h, PC-3 cells, 60 min compound incubation, MSD ELISA; read-out: IC50 pAkt_S473
In short: (§2)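 After lysis of treated cells (60 min, 37° C, 0.3% DMSO), phospho-Akt levels were measured by MSD electrochemiluminescence ELISA. Potency was derived from concentration-response curves fitted over five concentrations.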

[5] = system: Akt phosphorylated at Thr308 in PC-3 cells; assay: Cellular assay: phosphorylation of Akt at Thr308 in PC-3 cells (MSD ELISA); type: cell-based; conditions: Homo sapiens, PC-3, 1 h, PC-3 cells, 60 min compound incubation, MSD ELISA; read-out: IC50 pAkt_Thr308
In short: as §2

T1 sequence (P42338 whole entry): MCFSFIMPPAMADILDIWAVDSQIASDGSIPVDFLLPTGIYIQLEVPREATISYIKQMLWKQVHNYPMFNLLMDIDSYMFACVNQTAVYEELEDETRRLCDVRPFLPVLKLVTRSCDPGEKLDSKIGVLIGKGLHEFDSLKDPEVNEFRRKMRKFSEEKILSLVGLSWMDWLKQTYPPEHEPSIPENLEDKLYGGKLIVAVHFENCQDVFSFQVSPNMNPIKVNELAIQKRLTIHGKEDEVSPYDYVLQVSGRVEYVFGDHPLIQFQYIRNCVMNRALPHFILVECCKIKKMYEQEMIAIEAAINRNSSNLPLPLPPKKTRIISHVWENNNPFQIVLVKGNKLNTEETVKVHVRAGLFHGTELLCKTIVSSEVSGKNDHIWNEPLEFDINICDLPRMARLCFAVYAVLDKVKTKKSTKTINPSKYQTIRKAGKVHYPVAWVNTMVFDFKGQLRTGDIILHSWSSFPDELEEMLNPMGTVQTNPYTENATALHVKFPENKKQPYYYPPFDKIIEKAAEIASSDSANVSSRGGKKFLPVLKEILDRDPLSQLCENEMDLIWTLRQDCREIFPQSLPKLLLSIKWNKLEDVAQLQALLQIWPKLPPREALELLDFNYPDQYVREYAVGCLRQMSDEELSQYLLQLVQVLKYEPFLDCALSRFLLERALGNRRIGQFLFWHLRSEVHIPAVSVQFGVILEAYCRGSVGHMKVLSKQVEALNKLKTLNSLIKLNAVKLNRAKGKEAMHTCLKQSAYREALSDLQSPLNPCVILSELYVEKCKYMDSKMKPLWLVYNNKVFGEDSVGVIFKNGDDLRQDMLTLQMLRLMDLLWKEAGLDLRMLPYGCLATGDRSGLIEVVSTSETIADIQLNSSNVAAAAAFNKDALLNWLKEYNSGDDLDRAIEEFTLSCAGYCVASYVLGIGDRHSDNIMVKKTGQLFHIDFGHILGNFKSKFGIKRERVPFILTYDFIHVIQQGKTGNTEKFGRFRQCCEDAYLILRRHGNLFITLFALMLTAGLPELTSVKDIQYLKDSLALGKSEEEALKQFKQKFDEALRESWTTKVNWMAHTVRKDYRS

Row | SMILES | Kd (PI3Kβ) | Kd (PI3Kδ) | Kd (kinase enzymes [1]) | Kd (kinase enzymes [2]) | Kd (kinase enzymes [3]) | IC50 [4] | IC50 [5] | melting point
1 | CCN1CCN(C(=O)c2cc(C(C)Nc3cc(F)cc(F)c3)c3nc(N4CCOCC4)cnc3c2)CC1 (stereo not drawn) [Compound 143] | 0.002 µM | 0.389 µM | 2.82 µM | > 30.2 µM | 9.55 µM | 0.102 µM | 0.03 µM | 80 °C
2 | CC(Nc1cc(F)cc(F)c1)c1cc(C(=O)N2CCN(C)CC2)cc2ncc(N3CCOCC3)nc12 (stereo not drawn) [Compound 144] | 0.002 µM | 0.437 µM | 1.74 µM | > 30.2 µM | 5.62 µM | 0.059 µM | 0.028 µM | 80 °C
3 | CC(Nc1ccccc1)c1cc(C(=O)N(C)C)cc2ncc(N3CCOCC3)nc12 (stereo not drawn) [Compound 150] | 0.003 µM | 0.501 µM | 2.88 µM | > 30.2 µM | 3.72 µM | 0.138 µM | 0.091 µM | 110 °C
4 | CC(Oc1ccccc1)c1cc(C(=O)N(C)C)cc2ncc(N3CCOCC3)nc12 (stereo not drawn) [Compound 151] | 0.008 µM | 0.813 µM | 3.63 µM | > 30.2 µM | 8.71 µM | 0.49 µM | 0.066 µM | 80 °C
5 | CC(Nc1cc(F)cc(F)c1)c1cncc2ncc(N3CCOCC3)nc12 (stereo not drawn) [Compound 153] | 0.008 µM | 1.17 µM | 5.37 µM | 16.2 µM | 2.69 µM | 0.316 µM | 0.316 µM | 90 °C
6 | CC(Nc1cccc(C#N)c1)c1cc(C(=O)N(C)C)cc2ncc(N3CCOCC3)nc12 (stereo not drawn) [Compound 155] | 0.006 µM | 0.759 µM | 2.14 µM | > 30.2 µM | 6.61 µM | 0.437 µM | 0.339 µM | 186 °C
7 | CC(Nc1cc(F)cc(F)c1)c1cc(CNCC(F)F)cc2ncc(N3CCOCC3)nc12 (stereo not drawn) [Compound 164] | 0.004 µM | 1.1 µM | 2.4 µM | > 30.2 µM | 13.8 µM | 0.145 µM | 0.071 µM | 116 °C
8 | CC(Nc1cc(F)cc(F)c1)c1cc(CN2CCOCC2)cc2ncc(N3CCOCC3)nc12 (stereo not drawn) [Compound 168] | 0.017 µM | 1.86 µM | 3.63 µM | > 30.2 µM | > 30.2 µM | 0.214 µM | 0.112 µM | 165 °C
9 | CC(Nc1cc(F)cc(F)c1)c1cc(C(=O)N2CCN(CC(F)(F)F)CC2)cc2ncc(N3CCOCC3)nc12 (stereo not drawn) [Compound 171] | 0.003 µM | 0.575 µM | 2.19 µM | > 30.2 µM | > 30.2 µM | 0.155 µM | 0.102 µM | 125 °C
10 | CC(Nc1cc(F)cc(F)c1)c1cc(C2=NC(C)(C)CO2)cc2ncc(N3CCOCC3)nc12 (stereo not drawn) [Compound 186] | 0.01 µM | 1.78 µM | 6.31 µM | > 30.2 µM | 27.5 µM | 0.339 µM | 0.182 µM | 80 °C
11 | COC(=O)c1cc(C(C)Oc2ccc(F)c(F)c2)c2nc(N3CCOCC3)cnc2c1 (stereo not drawn) [Compound 209] | 0.316 µM | 11.5 µM | > 30.2 µM | > 30.2 µM | 17 µM | > 0.513 µM | > 0.513 µM | 183 °C

Other lines, results leading:

Row | Kd (PI3Kβ) | Kd (PI3Kδ) | Kd (kinase enzymes [1]) | Kd (kinase enzymes [2]) | Kd (kinase enzymes [3]) | IC50 [4] | IC50 [5] | melting point | SMILES
12 | 0.001 µM | 0.102 µM | 0.537 µM | 23.4 µM | 1.86 µM | ~0.032 µM | 0.009 µM | 80 °C | CC(Nc1cc(F)cc(F)c1)c1cc(C(=O)N(C)CCO)cc2ncc(N3CCOCC3)nc12 (stereo not drawn) [Compound 145]
13 | 0.002 µM | 0.933 µM | 1.91 µM | > 30.2 µM | 8.13 µM | 0.083 µM | 0.038 µM | 80 °C | CC(Nc1cc(F)cc(Cl)c1)c1cc(C(=O)N2CCOCC2)cc2ncc(N3CCOCC3)nc12 (stereo not drawn) [Compound 146]
14 | 0.0004 µM | 0.129 µM | 0.776 µM | > 30.2 µM | 1.15 µM | 0.01 µM | 0.006 µM | 80 °C | CNCCNC(=O)c1cc(C(C)Nc2cc(F)cc(Cl)c2)c2nc(N3CCOCC3)cnc2c1 (stereo not drawn) [Compound 147]
15 | 0.002 µM | 0.398 µM | 2.95 µM | > 30.2 µM | 2.34 µM | 0.251 µM | 0.138 µM | 80 °C | CC(Nc1cc(F)cc(F)c1)c1cc(C(=O)NCCOCCN)cc2ncc(N3CCOCC3)nc12 (stereo not drawn) [Compound 149]
16 | 0.026 µM | 7.76 µM | 17.4 µM | > 30.2 µM | 12.9 µM | > 0.513 µM | ~0.427 µM | 80 °C | CC(Nc1cc(F)cc(F)c1)c1cc(Br)cc2ncc(N3CCOCC3)nc12 (stereo not drawn) [Compound 167]
17 | 0.008 µM | 1.12 µM | 4.07 µM | 18.6 µM | 5.37 µM | 0.2 µM | 0.102 µM | 217 °C | CC(Nc1cc(F)cc(F)c1)c1cc(C(=O)NC(C)(C)CO)cc2ncc(N3CCOCC3)nc12 (stereo not drawn) [Compound 169]
18 | 0.005 µM | 0.288 µM | 0.617 µM | 4.37 µM | 2.24 µM | > 0.513 µM | > 0.513 µM | 285 °C | CC(Nc1cc(F)c(F)c(F)c1)c1cc(C(=O)O)cc2ncc(N3CCOCC3)nc12 (stereo not drawn) [Compound 170]
19 | 0.001 µM | 0.372 µM | 0.832 µM | 24.5 µM | 3.55 µM | 0.078 µM | 0.052 µM | 80 °C | CC(Nc1cc(F)cc(F)c1)c1cc(CNCCS(C)(=O)=O)cc2ncc(N3CCOCC3)nc12 (stereo not drawn) [Compound 173]
20 | 0.0001 µM | 0.049 µM | 0.891 µM | > 30.2 µM | 2.19 µM | 0.003 µM | 0.001 µM | 148 °C | CC(Nc1cc(F)cc(F)c1)c1cc(C(=O)N(C)CCN(C)C)cc2ncc(N3CCOCC3)nc12 (stereo not drawn) [Compound 180]
21 | 0.022 µM | 3.16 µM | 11.2 µM | > 30.2 µM | 15.5 µM | > 0.513 µM | 0.2 µM | 171 °C | CC(Oc1cc(F)cc(F)c1)c1cc(C(=O)NCCO)cc2ncc(N3CCOCC3)nc12 (stereo not drawn) [Compound 198]
22 | 4.79 µM | > 30.2 µM | > 30.2 µM | > 30.2 µM | 13.8 µM | > 0.513 µM | > 0.513 µM | 200 °C | CC(Nc1cc(F)c(C(F)(F)F)c(F)c1)c1cc(C(=O)NCCO)cc2ncc(N3CCOCC3)nc12 (stereo not drawn) [Compound 223]
23 | 0.186 µM | 4.47 µM | 27.5 µM | > 30.2 µM | > 30.2 µM | 0.468 µM | > 0.513 µM | 163 °C | CNCCN(C)C(=O)c1cc(C(C)Nc2cc(F)c(C(F)(F)F)c(F)c2)c2nc(N3CCOCC3)cnc2c1 (stereo not drawn) [Compound 224]
24 | 0.001 µM | 0.275 µM | 2.57 µM | 28.8 µM | 5.62 µM | 0.02 µM | 0.013 µM | 158 °C | CC(C)NCCNC(=O)c1cc(C(C)Nc2cccc(F)c2)c2nc(N3CCOCC3)cnc2c1 (stereo not drawn) [Compound 226]
